Key:
[1] = test system: rats, dogs, cats and rabbits; conditions: prior art; cited from earlier work
[2] = test system: skin; experiment: Handling hazard observed in synthesis; conditions: observation in synthesis
[3] = test system: genetically hypertensive rats; experiment: Blood pressure change after oral dosing (intra-arterial cannula and transducer); format: in vivo, rat; conditions: P.O. 50 mg./kg.; for change in vivo at 50 mg/kg: Rattus norvegicus, po, + increase, - decrease in b.p., tested as hydrochloride salts
Protocol: The blood pressure of unanesthetized rats and dogs was measured directly by means of a transducer attached to an intra-arterial cannula and in anesthetized dogs by a mercury manometer attached to a carotid cannula.
The compounds of the instant invention were tested as the hydrochloride salts by the above method in genetically hypertensive rats in doses of 50 mg./kg. orally.

## c1ccc2c(c1)CN1CCNC1=N2
[1]
  antihypertensive activity: potent antihypertensive activity

## Cc1cccc([N+](=O)[O-])c1CCl [2-Methyl-6-nitrobenzyl chloride]
[2]
  lachrymator and skin irritant: strong lachrymator and skin irritant

## O=C1CCN2Cc3cc(Br)ccc3N=C2N1 [Compound 21, 8-Bromo-6-[H]-1,2,3,4-tetrahydropyrimido[2,1-b]quinazolin-2-one]
[3]
  Blood Pressure % Change Rats column: toxicity in words: Toxic

## COc1cccc2c1CN1CCC(=O)NC1=N2 [Compound 25]
[3]
  change in vivo at 50 mg/kg: 5 ± 3%

## COc1ccc2c(c1)CN1CCC(=O)NC1=N2 [Compound 26]
[3]
  change in vivo at 50 mg/kg: 19 ± 6%

## COc1cccc2c1N=C1NC(=O)CCN1C2 [Compound 27]
[3]
  change in vivo at 50 mg/kg: -1 ± 4%

## COc1cc2c(cc1OC)N=C1NC(=O)CCN1C2 [Compound 28]
[3]
  change in vivo at 50 mg/kg: -7 ± 2%

Source: patent publication USRE31617E, “Optionally substituted 1,2,3,5-tetrahydroimidezo(2,1-b)-quinazolin-2-ones and 6(H)-1,2,3,4-tetrahydropyimido(2,1-b)quinazolin-2-ones” (Bristol-Myers Company, priority 1982, dated 1984)
